The values below are quoted from earlier work in patent US8992947B2, “Method for predicting therapeutic effect of chemotherapy on renal cell cancer” (Taiho Pharmaceutical Co., Ltd., priority 2009, dated 2015).

The test system of this data set is renal cell carcinoma. The conditions noted are these: most effective agent in summary of 83 clinical test results.

On to `O=c1[nH]c(=O)n([C@H]2C[C@H](O)[C@@H](CO)O2)cc1F` [floxuridine], for which the response rate is given as 13.4%.

With `O=c1[nH]cc(F)c(=O)[nH]1` [5-fluorouracil (5-FU), 5-fluorouracil], the response rate is 13.4%.
